Where “and” joins values, the source holds several entries; their conditions need not be identical. Identical values can stand only once. Like-named read-outs stand apart in the source and are kept apart here.
Columns and labels:
CLC-2 [1] = biological target: T1, CLC-2 (Homo sapiens (Human), UniProt P51788); conditions: preliminary data, Xenopus oocytes
CLC-1 [2] = biological target: T2, CLC-1 (Homo sapiens (Human), UniProt P35523); experiment: two-electrode voltage clamp electrophysiology in Xenopus oocytes, CLC-1; type: cell-based; conditions: preliminary data, read-out: IC50 against CLC-1
H3 = H3 (Homo sapiens (Human), UniProt Q9Y5N1); experiment: PDSP primary binding assay; conditions: primary binding assay at 10 μM
Experimental: (§1) Two exemplary compounds, FA44 and FA26, were screened against a panel of CNS receptors, transporters, and ion channels to examine specificity for CLC-2 in the brain. A comprehensive primary binding assay screen was performed through the NIH Psychoactive Drug Screening Program (PDSP) at UNC-Chapel Hill. Secondary or functional assays were performed for compounds showing >50% activity in the primary assay.

Alpha1B = Alpha1B (Homo sapiens (Human), UniProt P35368); experiment: PDSP primary binding assay; conditions: primary binding assay at 10 μM
Experimental: as §1

H1 = H1 (Homo sapiens (Human), UniProt P35367); experiment: PDSP primary binding assay; conditions: primary binding assay at 10 μM
Experimental: as §1

5-HT2C = 5-HT2C (Homo sapiens (Human), UniProt P28335); experiment: PDSP primary binding assay; conditions: primary binding assay at 10 μM
Experimental: as §1

CLC-2 [3] = biological target: T1, CLC-2; experiment: IonWorks Barracuda automated patch-clamp electrophysiology, human CLC-2 cell line; type: cell-based; conditions: for times greater potency towards CLC-2 compared to CLC-1: CLC-2 versus CLC-1
Description: FIG. 8, panels A and B depict graphically the Selectivity between CLC-1 and CLC-2. […]

CLC-1 [4] = biological target: T2, CLC-1; experiment: IonWorks Barracuda automated patch-clamp electrophysiology, CLC-1; type: cell-based; conditions: for IC50: Table 2; for percent inhibition of CLC-1 at highest concentration tested (in parenthesis): at the concentration listed in the same cell
Experimental: If the IC50 was greater than the highest concentration tested, this concentration is listed along with the percent inhibition at this concentration (in parenthesis).
FIG. 8, panels A and B depict graphically the Selectivity between CLC-1 and CLC-2. […] Data points represent the mean current block at 16 different FA44 concentrations (n=4-8), using the IonWorks™ Barracuda. […] Panel B depicts a summary graph showing the mean inhibition of CLC-1 (left bar) or CLC-2 (right bar) current at 30 μM, illustrating the improvement in both selectivity and potency from the hit compound MCFA to the exemplary compound FA44.

mGluR8 = mGluR8 (Homo sapiens (Human), UniProt O00222); experiment: PDSP functional assay; type: biochemical; conditions: only a functional assay was performed
Experimental: as §1

mGluR6 = mGluR6 (Homo sapiens (Human), UniProt O15303); experiment: PDSP functional assay; type: biochemical; conditions: only a functional assay was performed
Experimental: as §1

mGluR4 = mGluR4 (Homo sapiens (Human), UniProt Q14833); experiment: PDSP functional assay; type: biochemical; conditions: only a functional assay was performed
Experimental: as §1

mGluR2 = mGluR2 (Homo sapiens (Human), UniProt Q14416); experiment: PDSP functional assay; type: biochemical; conditions: only a functional assay was performed
Experimental: as §1

5-HT1A = 5-HT1A (Homo sapiens (Human), UniProt P08908); experiment: PDSP primary binding assay and secondary assay; conditions: for % (10 μM): primary binding assay at 10 μM; for Ki: secondary or functional assay
Chain of 5-HT1A (P08908 whole entry, species assumed): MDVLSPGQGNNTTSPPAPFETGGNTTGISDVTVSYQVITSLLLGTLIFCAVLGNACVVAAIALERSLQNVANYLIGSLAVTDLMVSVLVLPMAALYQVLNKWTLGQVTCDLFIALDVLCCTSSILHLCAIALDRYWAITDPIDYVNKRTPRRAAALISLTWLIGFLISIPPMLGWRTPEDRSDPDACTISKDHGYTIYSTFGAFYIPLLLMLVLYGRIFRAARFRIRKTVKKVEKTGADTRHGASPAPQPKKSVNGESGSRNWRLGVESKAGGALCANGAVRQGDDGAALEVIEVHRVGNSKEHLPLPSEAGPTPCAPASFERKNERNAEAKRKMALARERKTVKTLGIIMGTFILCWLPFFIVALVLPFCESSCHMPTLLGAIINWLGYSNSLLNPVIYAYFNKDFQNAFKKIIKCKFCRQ
Experimental: as §1

M4 = M4 (Homo sapiens (Human), UniProt P08173); experiment: PDSP primary binding assay and secondary assay; conditions: for % (10 μM): primary binding assay at 10 μM
Experimental: as §1

M3 = M3 (Homo sapiens (Human), UniProt P20309); experiment: PDSP primary binding assay and secondary assay; conditions: for % (10 μM): primary binding assay at 10 μM; for Ki: secondary or functional assay
Chain of M3 (P20309 whole entry): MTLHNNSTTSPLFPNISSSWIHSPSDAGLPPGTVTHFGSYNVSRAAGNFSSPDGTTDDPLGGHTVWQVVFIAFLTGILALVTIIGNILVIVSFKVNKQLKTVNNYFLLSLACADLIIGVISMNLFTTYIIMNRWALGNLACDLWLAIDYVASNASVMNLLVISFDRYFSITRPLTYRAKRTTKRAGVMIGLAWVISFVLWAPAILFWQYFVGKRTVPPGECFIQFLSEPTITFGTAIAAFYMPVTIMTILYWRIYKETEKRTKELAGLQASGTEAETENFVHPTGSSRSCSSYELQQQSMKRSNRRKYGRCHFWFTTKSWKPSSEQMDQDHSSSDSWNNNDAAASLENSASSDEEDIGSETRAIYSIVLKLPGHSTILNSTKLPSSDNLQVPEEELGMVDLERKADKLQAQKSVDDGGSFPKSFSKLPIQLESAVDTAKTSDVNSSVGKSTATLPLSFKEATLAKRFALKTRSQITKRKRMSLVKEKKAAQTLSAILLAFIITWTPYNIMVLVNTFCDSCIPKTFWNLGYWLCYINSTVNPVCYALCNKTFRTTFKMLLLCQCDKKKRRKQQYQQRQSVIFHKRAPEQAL
Experimental: as §1

HERG = HERG (Homo sapiens (Human), UniProt Q12809); experiment: PDSP primary binding assay and secondary assay; conditions: for % (10 μM): primary binding assay at 10 μM
Chain of HERG (Q12809 whole entry): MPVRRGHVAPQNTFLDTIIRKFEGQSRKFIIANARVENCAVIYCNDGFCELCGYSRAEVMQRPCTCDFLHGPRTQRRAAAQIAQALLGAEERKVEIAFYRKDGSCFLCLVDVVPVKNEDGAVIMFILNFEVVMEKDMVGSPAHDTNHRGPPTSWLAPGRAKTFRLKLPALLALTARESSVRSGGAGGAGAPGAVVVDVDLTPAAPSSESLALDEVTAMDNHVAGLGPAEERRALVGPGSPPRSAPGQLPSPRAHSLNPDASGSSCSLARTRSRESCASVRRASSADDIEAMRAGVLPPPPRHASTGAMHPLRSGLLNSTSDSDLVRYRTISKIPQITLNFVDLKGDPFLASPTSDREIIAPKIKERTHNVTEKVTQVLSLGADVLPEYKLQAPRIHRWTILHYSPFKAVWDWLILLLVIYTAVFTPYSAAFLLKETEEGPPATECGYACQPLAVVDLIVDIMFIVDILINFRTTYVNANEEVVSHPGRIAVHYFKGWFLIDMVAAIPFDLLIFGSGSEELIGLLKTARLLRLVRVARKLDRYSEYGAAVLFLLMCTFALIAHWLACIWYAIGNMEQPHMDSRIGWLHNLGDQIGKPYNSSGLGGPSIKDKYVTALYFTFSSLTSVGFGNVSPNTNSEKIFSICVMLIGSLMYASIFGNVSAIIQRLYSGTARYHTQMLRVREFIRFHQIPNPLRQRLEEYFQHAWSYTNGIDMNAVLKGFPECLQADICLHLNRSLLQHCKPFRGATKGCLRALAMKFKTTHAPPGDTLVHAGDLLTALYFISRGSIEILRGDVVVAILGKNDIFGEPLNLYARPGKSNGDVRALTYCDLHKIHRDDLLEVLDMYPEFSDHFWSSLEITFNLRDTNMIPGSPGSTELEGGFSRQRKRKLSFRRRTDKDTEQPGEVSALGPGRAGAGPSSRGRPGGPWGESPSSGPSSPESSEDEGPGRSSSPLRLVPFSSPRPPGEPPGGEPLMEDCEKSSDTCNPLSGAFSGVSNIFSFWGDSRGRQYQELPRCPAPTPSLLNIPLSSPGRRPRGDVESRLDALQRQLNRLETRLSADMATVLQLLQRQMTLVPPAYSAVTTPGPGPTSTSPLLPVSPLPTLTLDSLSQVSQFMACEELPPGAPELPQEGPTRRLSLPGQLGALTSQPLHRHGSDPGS
Experimental: as §1

M5 = M5 (Homo sapiens (Human), UniProt P08912); experiment: PDSP primary binding assay and secondary assay; conditions: for % (10 μM): primary binding assay at 10 μM; for Ki: secondary or functional assay
Chain of M5 (P08912 whole entry): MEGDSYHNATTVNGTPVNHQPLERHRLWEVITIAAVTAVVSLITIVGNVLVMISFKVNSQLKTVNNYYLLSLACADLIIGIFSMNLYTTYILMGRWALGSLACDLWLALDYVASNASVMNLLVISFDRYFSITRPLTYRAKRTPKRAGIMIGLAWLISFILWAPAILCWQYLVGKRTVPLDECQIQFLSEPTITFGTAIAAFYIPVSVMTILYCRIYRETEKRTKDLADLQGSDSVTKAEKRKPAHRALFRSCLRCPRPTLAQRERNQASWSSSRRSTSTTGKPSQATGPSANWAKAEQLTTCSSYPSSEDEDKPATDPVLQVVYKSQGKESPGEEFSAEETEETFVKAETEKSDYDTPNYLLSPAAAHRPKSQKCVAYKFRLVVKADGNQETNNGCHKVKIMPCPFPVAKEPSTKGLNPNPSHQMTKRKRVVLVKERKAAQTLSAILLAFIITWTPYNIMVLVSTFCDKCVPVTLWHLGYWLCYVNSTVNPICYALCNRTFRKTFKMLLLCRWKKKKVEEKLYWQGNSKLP
Experimental: as §1

Alpha2A = Alpha2A (Homo sapiens (Human), UniProt P08913); experiment: PDSP primary binding assay and secondary assay; conditions: for % (10 μM): primary binding assay at 10 μM
Chain of Alpha2A (P08913 whole entry): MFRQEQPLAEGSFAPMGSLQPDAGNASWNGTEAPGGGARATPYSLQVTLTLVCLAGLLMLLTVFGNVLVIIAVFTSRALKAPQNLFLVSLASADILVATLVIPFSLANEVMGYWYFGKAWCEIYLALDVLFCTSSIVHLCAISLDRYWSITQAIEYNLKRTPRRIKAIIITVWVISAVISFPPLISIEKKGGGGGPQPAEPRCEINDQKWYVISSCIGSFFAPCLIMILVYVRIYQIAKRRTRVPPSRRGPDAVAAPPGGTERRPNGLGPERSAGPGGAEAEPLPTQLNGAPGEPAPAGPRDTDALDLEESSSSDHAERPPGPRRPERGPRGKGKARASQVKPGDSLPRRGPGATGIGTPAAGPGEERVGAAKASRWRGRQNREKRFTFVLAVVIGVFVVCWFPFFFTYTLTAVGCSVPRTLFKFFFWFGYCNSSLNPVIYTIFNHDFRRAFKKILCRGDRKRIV
Experimental: as §1

mGluR5 = mGluR5 (Homo sapiens (Human), UniProt P41594); experiment: PDSP primary binding assay and secondary assay; conditions: for % (10 μM): primary binding assay at 10 μM; for Ki: secondary or functional assay
Chain of mGluR5 (P41594 21-1212): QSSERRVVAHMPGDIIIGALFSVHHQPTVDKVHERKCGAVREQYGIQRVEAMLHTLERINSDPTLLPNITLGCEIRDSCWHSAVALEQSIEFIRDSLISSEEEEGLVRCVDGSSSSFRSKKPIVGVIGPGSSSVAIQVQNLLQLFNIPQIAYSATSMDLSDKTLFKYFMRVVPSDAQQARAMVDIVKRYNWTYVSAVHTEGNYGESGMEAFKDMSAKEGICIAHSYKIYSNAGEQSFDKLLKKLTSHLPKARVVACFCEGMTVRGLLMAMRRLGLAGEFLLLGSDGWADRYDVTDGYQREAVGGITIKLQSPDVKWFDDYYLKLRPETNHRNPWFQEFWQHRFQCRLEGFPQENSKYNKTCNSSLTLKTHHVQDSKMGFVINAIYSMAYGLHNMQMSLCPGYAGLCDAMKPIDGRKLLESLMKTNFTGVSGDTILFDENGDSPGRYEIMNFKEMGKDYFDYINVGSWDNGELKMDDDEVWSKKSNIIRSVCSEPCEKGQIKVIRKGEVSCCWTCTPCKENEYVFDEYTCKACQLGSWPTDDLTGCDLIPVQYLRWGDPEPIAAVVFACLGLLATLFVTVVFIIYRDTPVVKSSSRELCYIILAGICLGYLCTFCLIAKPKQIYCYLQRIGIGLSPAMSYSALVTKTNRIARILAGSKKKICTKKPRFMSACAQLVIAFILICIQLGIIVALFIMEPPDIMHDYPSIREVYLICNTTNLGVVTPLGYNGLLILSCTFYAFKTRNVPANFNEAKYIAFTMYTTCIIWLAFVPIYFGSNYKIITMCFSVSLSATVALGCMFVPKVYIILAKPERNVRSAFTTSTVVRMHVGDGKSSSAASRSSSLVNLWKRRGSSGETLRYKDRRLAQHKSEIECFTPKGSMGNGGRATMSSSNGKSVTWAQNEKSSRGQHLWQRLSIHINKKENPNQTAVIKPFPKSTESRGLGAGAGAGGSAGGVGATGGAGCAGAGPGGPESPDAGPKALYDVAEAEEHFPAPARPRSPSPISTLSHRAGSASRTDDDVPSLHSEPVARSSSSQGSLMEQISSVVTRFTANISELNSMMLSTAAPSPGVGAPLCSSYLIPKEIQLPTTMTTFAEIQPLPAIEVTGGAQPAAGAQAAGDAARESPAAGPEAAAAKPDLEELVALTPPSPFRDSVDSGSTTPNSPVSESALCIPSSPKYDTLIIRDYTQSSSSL
Experimental: as §1

M1 = M1 (Homo sapiens (Human), UniProt P11229); experiment: PDSP primary binding assay and secondary assay; conditions: for % (10 μM): primary binding assay at 10 μM
Chain of M1 (P11229 whole entry): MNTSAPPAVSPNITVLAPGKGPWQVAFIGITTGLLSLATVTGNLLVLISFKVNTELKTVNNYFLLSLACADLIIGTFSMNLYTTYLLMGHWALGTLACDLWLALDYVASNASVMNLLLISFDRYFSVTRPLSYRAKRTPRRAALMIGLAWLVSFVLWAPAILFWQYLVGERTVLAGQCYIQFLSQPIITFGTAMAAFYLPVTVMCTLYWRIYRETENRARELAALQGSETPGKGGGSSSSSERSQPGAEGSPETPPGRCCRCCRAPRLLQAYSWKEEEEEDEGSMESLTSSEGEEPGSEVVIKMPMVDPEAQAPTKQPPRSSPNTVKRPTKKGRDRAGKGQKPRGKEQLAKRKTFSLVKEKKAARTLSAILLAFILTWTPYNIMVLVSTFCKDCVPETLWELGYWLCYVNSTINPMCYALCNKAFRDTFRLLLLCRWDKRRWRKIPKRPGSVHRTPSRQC
Experimental: as §1

[5] = system: panel of CNS receptors, channels, and transporters; experiment: PDSP screen against panel of CNS receptors, transporters, and ion channels (overall); type: binding
Experimental: as §1

A2A = A2A (Homo sapiens (Human), UniProt P29274); experiment: PDSP primary binding assay; conditions: primary binding assay at 10 μM
Experimental: as §1

V1B = V1B (Homo sapiens (Human), UniProt P47901); experiment: PDSP primary binding assay; conditions: primary binding assay at 10 μM
Experimental: as §1

V1A = V1A (Homo sapiens (Human), UniProt P37288); experiment: PDSP primary binding assay; conditions: primary binding assay at 10 μM
Experimental: as §1

[6] = n = 4 cells, four concentrations of each compound, IonWorks Barracuda, read-out: IC50 (μM) against CLC-2

SMILES | % (10 μM) (H3) | % (10 μM) (Alpha1B) | % (10 μM) (H1) | % (10 μM) (5-HT2C) | IC50 (CLC-2 [3]; [6]) | IC50 (CLC-1 [4]) | percent inhibition of CLC-1 at highest concentration tested (in parenthesis) (CLC-1 [4]) | % (10 μM) (5-HT1A) | Ki (5-HT1A) | % (10 μM) (M4) | % (10 μM) (M3) | Ki (M3) | % (10 μM) (HERG) | % (10 μM) (M5) | Ki (M5) | % (10 μM) (Alpha2A) | % (10 μM) (mGluR5) | Ki (mGluR5) | % (10 μM) (M1) | also measured
O=C(O)c1ccccc1Nc1c(Cl)ccc(OCc2ccccc2)c1Cl [AK3-99B] | −5.97% | 4.33% | −4.62% | −11.17% | 0.62 µM | > 30 µM | 25% | 50.00% | > 10 µM | −3.01% | 65.66% | > 10 µM | −15.95% | 56.99% | > 10 µM | 65.08% | 47.44% | > 10 µM | 58.54% | selectivity among CLC-1, CLC-2, CLC-Ka, CLC-Kb (CLC-2 [1]): selective for CLC-2; IC50 (CLC-1 [2]): > 250 µM; IC50 (CLC-2 [3]; Table 2, read-out: IC50 (CLC-2)): 1.7 ± 0.2 µM; IC50 (CLC-2 [3]; text and FIG. 3, Table 1 series, read-out: IC50 against CLC-2): ~0.6 µM and 0.6 µM; Ki (mGluR8): > 10 µM; Ki (mGluR6): > 10 µM; Ki (mGluR4): > 10 µM; Ki (mGluR2): > 10 µM; Ki (Alpha2A; secondary or functional assay): 3 µM; Ki (M1; secondary or functional assay): > 10 µM
O=C(O)c1cccnc1Nc1c(Cl)ccc(OCc2ccccc2)c1Cl [AK3-238] | −0.92% | 4.90% | 15.48% | −13.39% | < 0.12 µM | > 100 µM | 22% | 53.99% | > 10 µM | 56.16% | 54.64% | > 3 µM | −43.87% | 13.55% | > 10 µM | −2.55% | 57.39% | > 10 µM | 11.29% | off-target effects among panel of CNS receptors, channels, and transporters [5]: no off-target effects; % (10 μM) (A2A): −8.70%; % (10 μM) (V1B): 40.53%; % (10 μM) (V1A): 23.96%; % inhibition at the concentration listed (in parenthesis) (CLC-2 [3]; CLC-2, at the concentration listed in the IC50 cell, negative = increase in peak current): (90%); times greater potency towards CLC-2 compared to CLC-1 (CLC-2 [3]): approximately 10,000 times; times greater potency towards CLC-2 compared to CLC-1 (CLC-2 [3]; listed as FA44): 10,000 times; selectivity CLC-2 over CLC-1 (CLC-2 [3]; FIG. 8 panel A): selective for CLC-2 over CLC-1; IC50 (CLC-2 [3]; Table 2 / FIG. 8, 16 concentrations, n=4-8, −120 mV, read-out: IC50 (CLC-2)): 0.017 ± 0.002 µM; Ki (M4; secondary or functional assay): > 5 µM; Ki (HERG; secondary or functional assay): > 10 µM
